According to PMC12543283, “TastepepAI: An artificial intelligence platform for taste peptide de novo design” (PLOS Computational Biology, 2025):
Ends that are not written are not given here.

Tests used:
[1] = tested on: human embryonic kidney cells (HEK293T)
[2] = tested on: human pancreatic ductal epithelial cells (HPNE)
Experimental: (§1) The cytotoxicity of 73 synthetic peptides was evaluated using four human cell lines: human pancreatic ductal epithelial cells (HPNE), human embryonic kidney cells (HEK293T), human umbilical vein endothelial cells (HUVEC), and human bronchial epithelial cells (BEAS-2B). When cell density reached 70% confluence, the complete culture medium was replaced with serum-free maintenance medium, and peptides were added at a final concentration of 100 μM for 36 h. Control groups received only serum-free maintenance medium without peptides. Cell proliferation was assessed using the CCK-8 assay kit (Solarbio, CA1210) according to the manufacturer’s instructions.

[3] = tested on: human umbilical vein endothelial cells (HUVEC)
Experimental: as §1

[4] = tested on: human bronchial epithelial cells (BEAS-2B)
Experimental: as §1

[5] = Electronic tongue analysis (Taste-Sensing System SA 402B); design: unit not given here; conditions: reference solution 30 mM KCl + 0.3 mM tartaric acid as baseline, first measurement excluded; for Umami: sensor AAE; for Umami / Bitter / Sweet: detection threshold 0, room temperature; for Umami / Bitter / Sour / Salty: four replicates; for Sour: detection threshold -13, room temperature; for Salty: detection threshold -6, room temperature; for Sweet: measured five times
Experimental: Taste characteristics were analyzed using the electronic tongue system E-tongue (Taste-Sensing System SA 402B, Intelligent Sensor Technology Co. Ltd., Japan). The system was equipped with five specific sensor probes for detecting sourness (CA0), saltiness (CT0), bitterness (C00), sweetness (GL1), and umami (AAE). Samples were tested at concentrations of 0.1 mg/mL and 1.0 mg/mL. Prior to experiments, sensors were activated by immersion in a reference solution (30 mM KCl and 0.3 mM tartaric acid) for 24 h. A 30 min self-diagnostic procedure was performed before each measurement to ensure data accuracy. The reference solution served both as a cleaning solution and standard solution for taste signal calibration. According to the manufacturer’s instructions, using the reference solution as baseline, the detection thresholds were set at −13 for sourness, −6 for saltiness, and 0 for other taste modalities. Two cleaning solutions were employed for electrode maintenance: (1) 30% ethanol solution containing 100 mM HCl for negative charge reference electrodes, and (2) 30% ethanol solution containing 100 mM KCl and 10 mM KOH for positive charge reference electrodes. All taste measurements were performed at room temperature with four replicates, except for sweetness which was measured five times. The first measurement data were excluded from analysis.

Substance | Average cell viability, HEK293T [1] | Cell viability, HEK293T, Data1 [1] | Cell viability, HEK293T, Data2 [1] | Cell viability, HEK293T, Data3 [1] | Average cell viability, HPNE [2] | Cell viability, HPNE, Data1 [2] | Cell viability, HPNE, Data2 [2] | Cell viability, HPNE, Data3 [2] | Average cell viability, HUVEC [3] | Cell viability, HUVEC, Data1 [3] | Cell viability, HUVEC, Data2 [3] | Cell viability, HUVEC, Data3 [3] | Average cell viability, BEAS-2B [4] | Cell viability, BEAS-2B, Data1 [4] | Cell viability, BEAS-2B, Data2 [4] | Cell viability, BEAS-2B, Data3 [4] | Umami ([5]; peptide 0.1 mg/mL) | Umami ([5]; peptide 1 mg/mL) | Bitter ([5]; sensor C00, peptide 0.1 mg/mL) | Bitter ([5]; sensor C00, peptide 1 mg/mL) | further results
EEVPITD [TaPep46] | 100.85 | 99.94 | 100.60 | 102.02 | 104.39 | 107.62 | 107.82 | 97.74 | 101.12 | 105.61 | 97.55 | 100.19 | 111.37 | 117.25 | 103.29 | 113.56 | 1.60 | -4.41 | 7.55 | 4.18 | Sour ([5]; sensor CA0, peptide 0.1 mg/mL): -3.21; Sour ([5]; sensor CA0, peptide 1 mg/mL): 10.78; Salty ([5]; sensor CT0, peptide 0.1 mg/mL): -21.33; Salty ([5]; sensor CT0, peptide 1 mg/mL): 4.55; Sweet ([5]; sensor GL1, peptide 0.1 mg/mL): 6.32; Sweet ([5]; sensor GL1, peptide 1 mg/mL): -3.59
EFPEQN [TaPep17] | 98.68 | 94.45 | 102.97 | 98.61 | 92.31 | 86.66 | 92.25 | 98.04 | 96.70 | 94.76 | 94.12 | 101.22 | 109.94 | 112.36 | 107.58 | 109.87 | 1.17 | -5.94 | 7.25 | 3.52 | Sour ([5]; sensor CA0, peptide 0.1 mg/mL): -2.22; Sour ([5]; sensor CA0, peptide 1 mg/mL): 14.54; Salty ([5]; sensor CT0, peptide 0.1 mg/mL): -21.65; Salty ([5]; sensor CT0, peptide 1 mg/mL): -0.53; Sweet ([5]; sensor GL1, peptide 0.1 mg/mL): 5.23; Sweet ([5]; sensor GL1, peptide 1 mg/mL): -5.15
EKGVQ [TaPep64] | 103.19 | 103.53 | 102.87 | 103.15 | 98.34 | 89.85 | 95.04 | 110.12 | 104.98 | 101.54 | 110.56 | 102.82 | 103.99 | 103.09 | 103.59 | 105.28 | 1.91 | -4.02 | 7.39 | 3.04 | Sour ([5]; sensor CA0, peptide 0.1 mg/mL): -4.25; Sour ([5]; sensor CA0, peptide 1 mg/mL): 9.90; Salty ([5]; sensor CT0, peptide 0.1 mg/mL): -21.79; Salty ([5]; sensor CT0, peptide 1 mg/mL): 10.50; Sweet ([5]; sensor GL1, peptide 0.1 mg/mL): 4.85; Sweet ([5]; sensor GL1, peptide 1 mg/mL): -4.54
EPKVLV [TaPep54] | 102.24 | 103.15 | 102.49 | 101.07 | 100.23 | 115.91 | 95.44 | 89.35 | 110.64 | 113.84 | 114.72 | 103.38 | 102.43 | 95.01 | 108.18 | 104.09 | 3.06 | -3.47 | 7.63 | 2.50 | Sour ([5]; sensor CA0, peptide 0.1 mg/mL): -7.11; Sour ([5]; sensor CA0, peptide 1 mg/mL): 8.51; Salty ([5]; sensor CT0, peptide 0.1 mg/mL): -20.20; Salty ([5]; sensor CT0, peptide 1 mg/mL): 10.59; Sweet ([5]; sensor GL1, peptide 0.1 mg/mL): 9.28; Sweet ([5]; sensor GL1, peptide 1 mg/mL): -6.29
EQGEQN [TaPep15] | 92.65 | 98.80 | 86.59 | 92.56 | 101.30 | 84.06 | 112.61 | 107.22 | 100.56 | 103.30 | 104.26 | 94.12 | 103.09 | 105.68 | 95.51 | 108.08 | 3.17 | -3.63 | 6.27 | 4.11 | Sour ([5]; sensor CA0, peptide 0.1 mg/mL): -7.15; Sour ([5]; sensor CA0, peptide 1 mg/mL): 8.97; Salty ([5]; sensor CT0, peptide 0.1 mg/mL): -23.91; Salty ([5]; sensor CT0, peptide 1 mg/mL): 2.97; Sweet ([5]; sensor GL1, peptide 0.1 mg/mL): 9.72; Sweet ([5]; sensor GL1, peptide 1 mg/mL): -3.92
EQPLQA [TaPep21] | 97.76 | 94.35 | 95.58 | 103.34 | 98.70 | 92.25 | 87.35 | 116.51 | 102.16 | 96.59 | 98.43 | 111.44 | 98.84 | 92.62 | 108.57 | 95.31 | 0.99 | -5.14 | 7.83 | 3.66 | Sour ([5]; sensor CA0, peptide 0.1 mg/mL): -1.59; Sour ([5]; sensor CA0, peptide 1 mg/mL): 12.04; Salty ([5]; sensor CT0, peptide 0.1 mg/mL): -19.46; Salty ([5]; sensor CT0, peptide 1 mg/mL): 7.62; Sweet ([5]; sensor GL1, peptide 0.1 mg/mL): 5.53; Sweet ([5]; sensor GL1, peptide 1 mg/mL): -10.15
ESKDQ [TaPep55] | 98.14 | 94.73 | 101.07 | 98.61 | 94.61 | 105.92 | 82.36 | 95.54 | 102.82 | 107.29 | 96.11 | 105.06 | 109.14 | 112.96 | 98.40 | 116.05 | 1.27 | -4.53 | 7.76 | 2.75 | Sour ([5]; sensor CA0, peptide 0.1 mg/mL): -2.34; Sour ([5]; sensor CA0, peptide 1 mg/mL): 11.12; Salty ([5]; sensor CT0, peptide 0.1 mg/mL): -19.80; Salty ([5]; sensor CT0, peptide 1 mg/mL): 11.30; Sweet ([5]; sensor GL1, peptide 0.1 mg/mL): 5.21; Sweet ([5]; sensor GL1, peptide 1 mg/mL): -7.81
EVGMQE [TaPep56] | 101.26 | 104.86 | 101.55 | 97.38 | 104.53 | 109.42 | 91.95 | 112.21 | 106.36 | 96.04 | 108.89 | 114.16 | 108.94 | 97.91 | 109.67 | 119.24 | 2.28 | -4.04 | 7.18 | 3.33 | Sour ([5]; sensor CA0, peptide 0.1 mg/mL): -4.96; Sour ([5]; sensor CA0, peptide 1 mg/mL): 9.59; Salty ([5]; sensor CT0, peptide 0.1 mg/mL): -21.19; Salty ([5]; sensor CT0, peptide 1 mg/mL): 6.57; Sweet ([5]; sensor GL1, peptide 0.1 mg/mL): 7.84; Sweet ([5]; sensor GL1, peptide 1 mg/mL): -7.49
